Test [1] deals with T1, hBGT1 (Homo sapiens, UniProt P48065).
T1 construct: expressed in transfected cells
T1 sequence (P48065 1-614): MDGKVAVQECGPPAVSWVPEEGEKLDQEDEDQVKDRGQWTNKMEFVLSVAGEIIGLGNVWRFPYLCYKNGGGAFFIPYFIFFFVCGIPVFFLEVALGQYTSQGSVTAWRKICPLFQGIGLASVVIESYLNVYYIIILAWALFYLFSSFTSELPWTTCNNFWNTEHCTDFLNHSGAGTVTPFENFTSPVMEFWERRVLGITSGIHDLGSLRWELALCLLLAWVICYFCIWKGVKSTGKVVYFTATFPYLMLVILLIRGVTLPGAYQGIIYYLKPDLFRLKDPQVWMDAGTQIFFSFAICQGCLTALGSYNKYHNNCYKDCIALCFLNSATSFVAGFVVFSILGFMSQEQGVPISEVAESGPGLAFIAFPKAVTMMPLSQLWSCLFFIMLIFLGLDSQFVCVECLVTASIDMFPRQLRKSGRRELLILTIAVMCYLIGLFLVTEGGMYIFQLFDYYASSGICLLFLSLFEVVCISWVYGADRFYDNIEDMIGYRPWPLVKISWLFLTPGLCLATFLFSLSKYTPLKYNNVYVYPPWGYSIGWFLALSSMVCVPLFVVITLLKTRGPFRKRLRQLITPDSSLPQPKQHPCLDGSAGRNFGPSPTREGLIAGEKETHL
The test is classed as cell-based. Particulars: for IC50: 30 nM [3H]GABA, 3 min, CHO Flp-In cells stably expressing hBGT1; for subtype-selectivity for hBGT1 over the other hGATs: estimated from [3H]GABA uptake IC50 values; for subtype-selectivity for hBGT1 over the other hGATs / decrease of hBGT1 inhibitory potency compared to ATPCA: CHO Flp-In cells; for decrease of hBGT1 inhibitory potency compared to ATPCA: [3H]GABA uptake. The method, then: (§1) CHO Flp-In and tsA201 cells were cultured at 37 °C in a humidified atmosphere of […] and 5% CO2. As previously described[38],[63], CHO Flp-In cells stably expressing the hGATs were cultured in Ham’s F12 Nutrient Mix supplemented with 10% FBS, 1% P/S and plasmocin (5 µg/mL) under the selection pressure of hygromycin B (200 µg/mL). DMEM with GlutaMAX-I supplemented with 10% FBS and 1% P/S was used as growth medium for the tsA201 cells, which were transfected with DNA constructs using PolyFect according to the manufacturer’s specifications (Qiagen, West Sussex, UK), but with half of the recommended reagent volumes.
(§2) Uptake assays were performed in PDL-coated white 96-well polystyrene cell culture microplates (PerkinElmer, Boston, MA, USA) as previously described[38],[63]. […] Assay buffer was HBSS supplemented with 20 mM HEPES, 1 mM CaCl2 and 1 mM MgCl2, pH 7.4. […] After termination, scintillation liquid (MicroScint-20, PerkinElmer) was added and the radioactivity measured in a TopCount NXT Microplate Scintillation Counter (PerkinElmer).
(§3) Data analysis and statistical evaluation were performed in GraphPad Prism 7.02 (GraphPad Software, San Diego, CA, USA). Concentration-uptake inhibition curves, generated from the radioligand-based uptake assays, were fitted by non-linear regression, using the equation for sigmoidal concentration–response with variable slope: Y = Bottom + (Top–Bottom)/(1 + 10^((logIC50 − X) × HillSlope)), where Y is the response, X is the logarithm of the concentration, Top and Bottom are the plateaus in same units as Y, logIC50 is the concentration giving a response halfway between Bottom and Top, and the HillSlope is the steepness of the curve. For the substrate concentration–response curves generated from the FMP assay, the same equation was used but with logEC50 instead for logIC50. Unless otherwise stated, data are presented as means ± S.E.M. of at least three independent pooled experiments performed in triplicates.

Test [2] concerns the target T2, hGAT2 (Homo sapiens, UniProt Q9NSD5).
T2 construct: expressed in transfected cells
T2 sequence (Q9NSD5 1-602): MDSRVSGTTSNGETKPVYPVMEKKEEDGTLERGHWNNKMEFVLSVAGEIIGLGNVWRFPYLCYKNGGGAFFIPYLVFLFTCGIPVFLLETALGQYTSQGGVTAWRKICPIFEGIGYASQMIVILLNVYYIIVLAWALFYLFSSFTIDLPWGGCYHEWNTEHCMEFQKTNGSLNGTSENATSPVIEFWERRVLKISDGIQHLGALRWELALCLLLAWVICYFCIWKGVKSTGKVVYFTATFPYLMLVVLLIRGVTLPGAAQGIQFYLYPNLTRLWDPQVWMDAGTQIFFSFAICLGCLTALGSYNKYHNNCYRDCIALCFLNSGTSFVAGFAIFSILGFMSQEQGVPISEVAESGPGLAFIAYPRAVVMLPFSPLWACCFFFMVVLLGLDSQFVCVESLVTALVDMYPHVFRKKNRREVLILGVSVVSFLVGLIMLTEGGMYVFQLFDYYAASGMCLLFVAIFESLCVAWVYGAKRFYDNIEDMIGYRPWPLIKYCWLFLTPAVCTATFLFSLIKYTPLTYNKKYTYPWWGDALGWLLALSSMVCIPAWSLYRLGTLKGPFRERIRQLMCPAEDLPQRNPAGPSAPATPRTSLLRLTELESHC
The test is described as follows: [3H]GABA uptake inhibition at hGAT2 stably expressed in CHO Flp-In cells. Type of test: cell-based. The note with it: 30 nM [3H]GABA, 3 min, CHO Flp-In cells stably expressing hGAT2; read-out: IC50 hGAT2. The method, then:
as §1, §2, §3

For test [3], the target named is T3, hGAT3 (Homo sapiens, UniProt P48066).
T3 construct: expressed in transfected cells
T3 sequence (P48066 1-632): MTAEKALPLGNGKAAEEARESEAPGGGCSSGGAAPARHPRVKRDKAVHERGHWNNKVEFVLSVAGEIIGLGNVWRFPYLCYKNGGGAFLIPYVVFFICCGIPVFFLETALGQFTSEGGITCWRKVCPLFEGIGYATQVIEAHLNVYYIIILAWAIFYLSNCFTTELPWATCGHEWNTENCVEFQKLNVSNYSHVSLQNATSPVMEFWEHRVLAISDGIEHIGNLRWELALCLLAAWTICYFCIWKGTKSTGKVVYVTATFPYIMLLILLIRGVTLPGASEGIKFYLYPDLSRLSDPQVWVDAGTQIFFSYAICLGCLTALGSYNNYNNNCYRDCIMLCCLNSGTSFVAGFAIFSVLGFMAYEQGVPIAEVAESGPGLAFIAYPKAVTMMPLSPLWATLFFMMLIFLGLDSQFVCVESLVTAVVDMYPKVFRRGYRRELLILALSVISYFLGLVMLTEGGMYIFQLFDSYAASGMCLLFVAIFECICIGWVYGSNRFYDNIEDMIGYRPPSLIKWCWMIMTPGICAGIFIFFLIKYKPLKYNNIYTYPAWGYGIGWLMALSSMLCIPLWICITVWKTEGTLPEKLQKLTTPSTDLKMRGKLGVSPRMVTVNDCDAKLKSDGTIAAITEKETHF
Briefly: [3H]GABA uptake inhibition at hGAT3 stably expressed in CHO Flp-In cells. Type of test: cell-based. The note with it: 30 nM [3H]GABA, 3 min, CHO Flp-In cells stably expressing hGAT3; read-out: IC50 hGAT3. The method, then:
as §1, §2, §3

In test [4] the target is T1, hBGT1. The note with it: [3H]GABA uptake, recombinant hBGT1; adapted from Al-Khawaja et al.; cited from earlier work.
[5] abbreviates: read-out: pIC50 ± S.E.M. hBGT1 (converted).

Where “and” joins values, the source holds several entries; their conditions need not be identical. Identical values can stand only once. Like-named read-outs stand apart in the source and are kept apart here.

On to `C[C@@H]1N=C(N)NC[C@@H]1C(=O)O` (single isomer, unassigned) [l-15a], for which the IC50 in test [1] (read-out: IC50 hBGT1) is less than 100 µM; in test [1] (setting [5]) it was 33.9 µM; in test [2] it was greater than 1000 µM; in test [3], greater than 1000 µM. Moreover, in test [1], the “subtype-selectivity for hBGT1 over the other hGATs” value (“subtype-selectivity for hBGT1” for short) was no less than 29 times.

For the molecule `NC1=NCC(C(=O)O)CN1` (stereo not shown) [ATPCA, 2-amino-1,4,5,6-tetrahydropyrimidine-5-carboxylic acid, reference compound], in test [4], the IC50 is 2.5 µM and the “pIC50 ± S.E.M. hBGT1” value is 5.60 ± 0.11.

On to `NC1=NCC(C(=O)O)CC1` (stereo not shown) [compound 2, 6-amino-2,3,4,5-tetrahydropyridine-3-carboxylic acid, reference compound], for which the IC50 in test [1] (read-out: IC50 hBGT1) was less than 100 µM; in test [1] (setting [5]), 12.9 µM; in test [2], greater than 1000 µM; in test [3] it was greater than 1000 µM; in test [4], 9.8 µM. Further, the “decrease of hBGT1 inhibitory potency compared to ATPCA” value (“decrease of hBGT1 inhibitory potency” below) in test [1] was “fivefold”.

As to `CCN1CC(C(=O)O)CN=C1N.Cl` (stereo not shown) [compound 3], the IC50 was 86 µM in test [1] (read-out: IC50 hBGT1), greater than 1000 µM in test [2] and greater than 1000 µM in test [3]. Moreover, the “decrease of hBGT1 inhibitory potency” value in test [1] was 20–65 fold and 34 fold. Further, the “subtype-selectivity for hBGT1” value in test [1] is “at least 12 times”.

As for `Cl.NC1=NCC(C(=O)O)CN1Cc1ccccc1` (stereo not shown) [compound 4], the IC50 in test [1] (read-out: IC50 hBGT1) amounted to 163 µM; in test [2] it was 105 µM; in test [3], 117 µM. Further, the “decrease of hBGT1 inhibitory potency” value in test [1] was 20–65 fold.

Consider `NC1=NC=C(C(=O)O)CN1.O=C(O)C(F)(F)F` [compound 11], for which the IC50 in test [1] (read-out: IC50 hBGT1) was 48 µM; in test [1] (setting [5]), 46.8 µM; in test [2], greater than 1000 µM; in test [3] it was greater than 1000 µM. Besides, the “decrease of hBGT1 inhibitory potency” value in test [1] amounted to 19 fold. Also, the “subtype-selectivity for hBGT1” value in test [1] is given as no less than 21 times.

(Values after PMC7400577 (Scientific Reports, 2020).)
